Legend:
[1] = test system: PBMC from HLA-DQ2+ coeliac subjects; test: Interferon gamma ELISPOT, hordein 20mer first round library after barley challenge; assay type: cell-based, human; design: key to individual peptide showing maximal response in a single individual (asterisk): *: an asterisk indicates the eight individual peptides showing maximal response in a single individual; details: for number of subjects with > 70% maximal response / subjects with at least 40% maximal peptide response: 17 subjects
Protocol: Peptides were initially dissolved in aqueous acetonitrile (50%). Peptides in aqueous acetonitrile were transferred to sterile 96-well plates and diluted in sterile PBS with 1 mM calcium (250 mcg/ml) and then incubated with tTG (25 mcg/ml) (Sigma T5398) for 6 h 37° C. and then stored frozen (−20° C.) until use.
(§1) IFNγ ELISpot assays (Mabtech, Sweden) were performed in 96-well plates (MAIP S-45, Millipore) in which each well contained 25 mcl of peptide solution and 100 mcl of PBMC (2-8×10^5/well) in RPMI containing 10% heat inactivated human AB serum. After development and drying, IFNγ ELISpot plates were assessed using the MAIP automated ELISpot plate counter. Data was then analysed according to a novel algorithm (Expectation Maximization: EM) to define and quantify interferon-gamma responses to 9mer sequences contained within the peptide library (see FIG. 3 and below). 9mer peptides were then rationalised according to an algorithm that assumes redundancy in T-cell recognition, the “IterativeCluster” algorithm (see FIG. 4 and below), by allowing groups of amino acids with similar chemical properties at any one position in the 9mer, or for glutamate to replace glutamine at any position (assuming deamidation may have occurred).
Secalin and hordein 20mer first round peptide libraries were assessed 3 days after completing rye (bread, 100 g/d for 3 days) or barley (boiled, 100 g/d for 3 days) challenge (“day 6” PBMC interferon gamma ELISPOT responses). Although iterative analysis using 2nd and 3rd round peptide libraries to define epitopes has not yet been performed, the 20mers pre-treated with tTG found to induce “potent” responses shared substantial structural similarity to the bioactive peptides identified after wheat challenge. […] The dominant (>70% maximal response) 20mer after rye challenge was usually […] (SEQ ID NO: 1769) (8/14 subjects), or occasionally […] (SEQ ID NO: 1770) (4/14), […] (SEQ ID NO: 1771) (1/14), […] (SEQ ID NO: 1772) (1/14) and/or […] (SEQ ID NO: 1773) (1/14). Additional peptides noted for greater than 40% maximal response in at least 1 subject include:
Typically, the dominant peptides after barley challenge included one of six peptide motifs, or were one of eight other individual 20mers “dominant” in only one of 17 subjects after barley challenge. The six motifs identified:
The barley hordein peptides showing at least 40% maximal peptide response in at least one subject include the following, wherein an asterisk indicates the eight individual peptides showing maximal response in a single individual: […]

[2] = test system: PBMC from HLA-DQ2+ coeliac subjects; test: Interferon gamma ELISPOT, second round wheat gliadin and glutenin 16mer library; assay type: cell-based, human; details: 16mers pre-treated with transglutaminase, 18 or 28 subjects; for subjects with >70% of maximal peptide-specific response: normalized to individual's maximal response
Description: 12mer peptides were then identified in which each potential deamidation site could be in position 4, 6 or 7 in the 9mer located within HLA-DQ2 binding groove (HLA-DQ2 anchors at these positions show a preference for glutamate). Candidate 12mer core epitope sequences were then flanked with glycine followed by the N-terminal residue present in the parent gliadin polypeptide and at the C-terminal by the C-terminal residue present in the parent gliadin polypeptide followed by glycine (i.e. GXXXXXXXQXXXXXXG (SEQ ID NO: 1936)). […]
as §1
All 2nd round 16mer peptides were assessed in at least 18 subjects. […] All 16mers identified for the second round Oxford library also fulfilled the selection criteria for the Melbourne second round library.
The second round peptide library data was analysed according to the “dominance” of peptide responses in the interferon gamma ELISPOT in individual subjects i.e. the percent response of an individual's PBMC to a specific peptide normalized against that individual's maximal peptide-induced response. Sequences of peptides that stimulated at least 40% of the maximal peptide-specific response in at least one subject are shown in Table 1 below. The dataset supports the consistency and “dominance” of peptides conforming to the sequences identified using the first round 20mer peptide library using the Expectation Maximization (EM) algorithm described above.

| Substance | number of subjects with > 70% maximal response [1] | subjects with at least 40% maximal peptide response [1] | individual peptide showing maximal response in a single individual (asterisk) [1] | subjects with 10-40% of maximal peptide-specific response [2] | subjects with 40-70% of maximal peptide-specific response [2] | subjects with <10% of maximal peptide-specific response [2] | subjects with >70% of maximal peptide-specific response [2] |
| --- | --- | --- | --- | --- | --- | --- | --- |
| PVLSQQQPCTQDQTPLLQEQ (Description of Artificial Sequence: Synthetic gluten peptide) [barley hordein 20mer] | 1 | 1/17 | – | – | – | – | – |
| PQQASPLQPQPQQASPLQPQ (Description of Artificial Sequence: Synthetic gluten peptide) [barley hordein 20mer] | 1 | 1/17 | – | – | – | – | – |
| SPLQPQQPFPQGSEQIIPQQ (Description of Artificial Sequence: Synthetic gluten peptide) [barley hordein 20mer] | 0 | 1/17 | – | – | – | – | – |
| PFPQPPQQKYPEQPQQPFPW (Description of Artificial Sequence: Synthetic gluten peptide) [barley hordein 20mer] | 1 | 1/17 | – | – | – | – | – |
| WQPQQPFPQPQQPFPLQPQQ (Description of Artificial Sequence: Synthetic gluten peptide) [barley hordein 20mer] | 5 | 9/17 | * | – | – | – | – |
| PFPQQPQQPFPQPQQPFRQQ (Description of Artificial Sequence: Synthetic gluten peptide) [barley hordein 20mer] | 3 | 6/17 | – | – | – | – | – |
| QGSEQIIPQQPQQPFPLQPH (Description of Artificial Sequence: Synthetic gluten peptide) [barley hordein 20mer] | 3 | 7/17 | * | – | – | – | – |
| YPQQPQPFPQQPIPQQPQPY (Description of Artificial Sequence: Synthetic gluten peptide) [barley hordein 20mer] | 2 | 6/17 | – | – | – | – | – |
| G-QLPYPQPQLPYPQP-G: wheat 16mer, second round library (GQLPYPQPQLPYPQPG; Description of Artificial Sequence: Synthetic gluten peptide) | – | – | – | 3/28 | 4/28 | 3/28 | 18/28 |
| DAIRAIIYSIVLQEQQ [wheat 16mer, second round library] | – | – | – | Nil | Nil | 17/18 | Nil |
| G-FPQLQQPQQPFPQQ-G: wheat 16mer, second round library (GFPQTQQPQQPFPQQG; Description of Artificial Sequence: Synthetic gluten peptide) | – | – | – | 1/28 | Nil | 26/28 | 1/28 |
| G-MQVDPSGQVQWPQQ-G: wheat 16mer, second round library (GIQVDPSGQVQWPQQG; Description of Artificial Sequence: Synthetic gluten peptide) | – | – | – | Nil | Nil | 17/18 | 1/18 |
| QGQPGYYPTSPQQIGQ [wheat 16mer, second round library] | – | – | – | 1/18 | 1/18 | 15/18 | 1/18 |
| G-LQPFPQPQLPYSQP-G: wheat 16mer, second round library (GLQPFPQPQLPYSQPG; Description of Artificial Sequence: Synthetic gluten peptide) | – | – | – | 12/28 | 3/28 | 11/28 | 2/28 |
| G-QQQFSQPQQQFPQP-G: wheat 16mer, second round library | – | – | – | 7/28 | 5/28 | 16/28 | Nil |
| G-FPQQPQQQFPQPQQ-G: wheat 16mer, second round library (GQQPFPQPQQQFPQPG; Description of Artificial Sequence: Synthetic gluten peptide) | – | – | – | Nil | 1/28 | 27/28 | Nil |
| PGQGQSGYYPTSPQQS [wheat 16mer, second round library] | – | – | – | Nil | 1/18 | 16/18 | 1/18 |
| QQGYYPTSPQQSGQGQ (QGQQGYYPTSPQQPPQ; Description of Artificial Sequence: Synthetic gluten peptide) [wheat 16mer, second round library] | – | – | – | Nil | 1/18 | 17/18 | Nil |
| IIMQQEQQEQRQGVQI [wheat 16mer, second round library] | – | – | – | 8/28 | Nil | 19/28 | 1/28 |
| LQTLPSMCNVYIPPYC [wheat 16mer, second round library] | – | – | – | Nil | Nil | 17/18 | Nil |
| QQGYYPISPQQLGQGQ [wheat 16mer, second round library] | – | – | – | Nil | 1/18 | Nil | Nil |
| LQQQCSPVAMPQRLAR [wheat 16mer, second round library] | – | – | – | 11/28 | 1/28 | 15/28 | 1/28 |
| G-LQPFPQPQLSYSQP-G: wheat 16mer, second round library (GLQPFPQPQLSYSQPG; Description of Artificial Sequence: Synthetic gluten peptide) | – | – | – | 2/28 | 1/28 | 25/28 | Nil |
| G-LQPFPQPQLPYLQP-G: wheat 16mer, second round library (GLQPFPQPQLPYLQPG; Description of Artificial Sequence: Synthetic gluten peptide) | – | – | – | 12/28 | 1/28 | 14/28 | 1/28 |

Source: patent US10105437B2, “Epitopes related to coeliac disease” (BTG International Limited, priority 2004, dated 2018)
